Data reported in patent US9079859B2, “Synthetic lethal targeting of glucose transport” (AUCKLAND UNISERVICES LIMITED, priority 2011, dated 2015).

Columns and labels:
Type in all cases: cell-based
786-0 = test: RCC panel sensitivity (Table 2); conditions: 786-0, VHL mutant
RCC4 cells [1] = test: XTT cell viability assay, RCC4; conditions: four days of treatment; compared to RCC4/VHL; concentration-dependent
Description: (§1) Cell Viability Assays. For 2,3-bis[2-methoxy-4-nitro-5-sulfophenyl]-2H-tetrazolium-5-carboxanilide (XTT) assays, five thousand cells were plated in 96-well plates. The next day, vehicle (DMSO) or drug was added by serial dilution. Four days later, media were aspirated, XTT solution (0.3 mg/ml of XTT (Sigma), […] N-methyl dibenxopyrazine methyl sulfate (Sigma) in phenol red-free media) was added, and the plates were incubated at 37° C. for 1-2 hours. Metabolism of XTT was quantified by measuring the absorbance at 450 nm. IC50s were calculated using linear interpolation. For clonogenic survival assays, three hundred cells were plated per 60 mm tissue culture dish. The cells were allowed to attach overnight and then treated with vehicle or drug for 14 days. Colonies were fixed and stained with crystal violet (0.1% crystal violet in 95% ethanol). All conditions were measured in triplicate and each experiment was done in duplicate or triplicate. To determine necrosis, cells were treated with drug for a given time point. Media and cells were collected, centrifugated, and resuspended in 0.4% trypan blue (Invitrogen). Live and dead cells were counted on a hematocytometer.

Caki-1 = test: RCC panel sensitivity (Table 2); conditions: Caki-1, VHL wild-type
ACHN = test: RCC panel sensitivity (Table 2); conditions: VHL wild-type
ACHN shVHL cells = test: Clonogenic survival, ACHN with shRNA to VHL; conditions: clonogenic survival (FIG. 1E); only the VHL-silenced cells
Description: as §1

SN12C = test: RCC panel sensitivity (Table 2); conditions: VHL wild-type
786/VHL = test: RCC panel sensitivity (Table 2); conditions: VHL wild-type
UMRC6 = test: RCC panel sensitivity (Table 2); conditions: UMRC6, VHL mutant
cells with wild-type VHL = test: Glycolysis (lactate, extracellular acidification), wild-type VHL cells; conditions: lactate and extracellular acidification
Description: HIF is important to adapting to low oxygen conditions through the transcription of many genes, including those involved in glucose metabolism. It was hypothesized that STF-31 might inhibit metabolic pathways, leading to necrotic cell death. To examine whether this compound alters glycolysis, intracellular lactate, which is rapidly converted from the glycolysis end product pyruvate, and extracellular acidification were measured. Baseline levels of glycolysis were lower in wild-type VHL cells compared to VHL-deficient cells (FIGS. 2, A and B), likely a result of the constitutive expression of HIF and subsequent overexpression of glucose transporters and glycolytic enzymes in the latter.

RCC4 cells [2] = test: Clonogenic survival, RCC4; conditions: STF-31 5 μM, media replaced, grown for a total of 10 days (FIG. 1D)
Description: as §1, with “The cells were allowed to attach overnight and then treated with vehicle or drug for 14 days.” left out

SN12C shVHL = test: RCC panel sensitivity (Table 2); conditions: VHL silenced
ACHN shVHL = test: RCC panel sensitivity (Table 2); conditions: VHL silenced
hexokinase = test: Hexokinase activity in whole-cell lysates, RCC4; conditions: only after three days of treatment
Excerpt: We then examined whether this decrease in glycolysis in response to STF-31 was due to a decrease in glucose uptake or whether STF-31 inhibited a particular glycolytic enzyme. To test this, we measured glucose uptake using 2-deoxy-D-[^3H] glucose, a non-hydrolyzable, radioactive glucose analog. STF-31 impaired glucose uptake in RCC4 and 786-O cells but not in the matched isogenic cells expressing wild-type VHL (FIGS. 2B, 6A, and 6C). RCC4/VHL cells had lower baseline levels of glucose uptake compared to RCC4 cells and were unaffected by treatment with STF-31. […] Because the phosphorylation of glucose to glucose-6-phosphate is important for preventing glucose efflux from the cell, we asked whether STF-31 might function by inhibiting the phosphorylation of glucose by hexokinase. […]
Cell Culture and Reagents. […] GLUT1 was detected with anti-GLUT1 antibody from NeoMarkers/LabVision/Fisher. For immunofluorescent studies, GLUT1, GLUT2, and GLUT3 antibodies were purchased from R&D. Pyruvate/lactate levels and hexokinase activity were both measured by fluorometric assay (BioVision and Sigma-Aldrich, respectively). ATP levels were measured by bioluminescence assay (ATP Determination Kit from Molecular Probes/Invitrogen). […]

CC(C)(C)c1ccc(S(=O)(=O)NCc2ccc(C(=O)Nc3cccnc3)cc2)cc1 [STF-31]
3-series sensitivity (sensitivity to STF-31) (786-0): Yes | number of RCC4 cells (cell viability by XTT) (RCC4 cells [1]): significant decrease | 3-series sensitivity (sensitivity to STF-31) (Caki-1): Yes | 3-series sensitivity (sensitivity to STF-31) (ACHN): No | sensitivity of ACHN cells with VHL silenced by shRNA (ACHN shVHL cells): sensitive | 3-series sensitivity (sensitivity to STF-31) (SN12C): Yes | 3-series sensitivity (sensitivity to STF-31) (786/VHL): Yes | 3-series sensitivity (sensitivity to STF-31) (UMRC6): No | glycolysis in cells with wild-type VHL (cells with wild-type VHL): did not alter | RCC4 cells killed following treatment (RCC4 cells [2]): Approximately 80% | 3-series sensitivity (sensitivity to STF-31) (SN12C shVHL): Yes | 3-series sensitivity (sensitivity to STF-31) (ACHN shVHL): Yes | hexokinase activity in RCC4 cells (hexokinase): inhibited
